Experimental data taken from US20240400555A1 (Initial Therapeutics, Inc., priority 2023, published 2024).

Tested on: MV-4-11 cells
Experiment: Cell Viability Assay in MV-4-11 Cells
Format: cell-based
Details: Homo sapiens, MV4-11, 72 h, MV-4-11 cells, 72 h, Cell-Titer Glo; read-out: IC50
Procedure: MV-4-11 cells (ATCC) were seeded into sterile 96-well flat clear bottom white polystyrene TC-treated microplates (Corning) at 7,000 cells/well in 150 μL complete growth medium (Iscove's Modified Dulbecco's Medium (IMDM) (Gibco), 10% Heat Inactivated Fetal Bovine Serum (HyClone), 1% Penicillin-Streptomycin-L-Glutamine (HyClone), 1% GlutaMAX (Gibco)). […] After 72 h incubation, plates were removed from incubators and allowed to equilibrate to room temperature (˜10 min) before adding 50 μL per well Cell-Titer Glo reagent (Promega) using a WellJet (Integra Biosciences) dispenser. Plates were then incubated at room temperature for 2-20 min prior to measurement of luminescence on an Envision (Perkin Elmer) plate reader. Data were normalized to DMSO (100% viability) and analyzed using a non-linear four-parameter curve fit.

IC50 [nM] | SMILES
180 | Cc1cccc2ccnc(N(C(=O)c3ccc(Nc4ncc(CO)cn4)cc3F)[C@@H]3CCCNC3)c12 [Example 322, (R)-2-fluoro-4-((5-(hydroxymethyl)pyrimidin-2-yl)amino)-N-(8-methylisoquinolin-1-yl)-N-(piperidin-3-yl)benzamide]
350 | C=C(C)c1ccc2c(N(C(=O)c3ccc(-c4cn(C)nn4)cc3F)[C@@H]3CCCNC3)nccc2c1 [Example 692, (R)-2-fluoro-4-(1-methyl-1H-1,2,3-triazol-4-yl)-N-(piperidin-3-yl)-N-(6-(prop-1-en-2-yl)isoquinolin-1-yl)benzamide]
120 | Cc1cccc2ccnc(N(C(=O)c3ccc(Nc4nccc(NCc5nccs5)n4)cc3F)[C@@H]3CCCNC3)c12 [Example 693, (R)-2-fluoro-N-(8-methylisoquinolin-1-yl)-N-(piperidin-3-yl)-4-((4-((thiazol-2-ylmethyl)amino)pyrimidin-2-yl)amino)benzamide]
100 | [2H]C([2H])([2H])c1nnc(-c2ccc(C(=O)N(c3nccc4cc(Cl)cc(C)c34)[C@@H]3CCCNC3)c(F)c2)s1 [Example 766, (R)—N-(6-chloro-8-methylisoquinolin-1-yl)-2-fluoro-4-(5-(methyl-d3)-1,3,4-thiadiazol-2-yl)-N-(piperidin-3-yl)benzamide]
230 | Cc1cccc2ccnc(N(C(=O)c3ccc(Nc4nccc(N5CCC(N(C)C)CC5)n4)cc3F)[C@@H]3CCCNC3)c12 [Example 714, (R)-4-((4-(4-(dimethylamino)piperidin-1-yl)pyrimidin-2-yl)amino)-2-fluoro-N-(8-methylisoquinolin-1-yl)-N-(piperidin-3-yl)benzamide]
110 | Cc1nnc(-c2ccc(C(=O)N(c3nccc4cc(Cl)cc(C)c34)[C@@H]3CCCNC3)cn2)o1 [Example 917, N-(6-chloro-8-methyl-1-isoquinolyl)-6-(5-methyl-1,3,4-oxadiazol-2-yl)-N-[(3R)-3-piperidyl]pyridine-3-carboxamide]
210 | Cc1nnc(-c2ccc(C(=O)N(c3nccc4cc(F)cc(C)c34)C3CCCNC3)cc2)s1 (stereo not drawn) [Example 725, N-(6-fluoro-8-methyl-1-isoquinolyl)-4-(5-methyl-1,3,4-thiadiazol-2-yl)-N-(3-piperidyl)benzamide]
360 | O=C(c1ccc(-n2nnc3cccnc32)cc1F)N(c1nccc2sc(-c3cccnc3)cc12)[C@@H]1CCCNC1 [Example 364, 2-fluoro-N-[(3R)-3-piperidyl]-N-[2-(3-pyridyl)thieno[3,2-c]pyridin-4-yl]-4-(triazolo[4,5-b]pyridin-3-yl)benzamide]
170 | Cc1csc2ccnc(N(C(=O)c3ccc(-c4nnc(CCC#N)s4)nc3)[C@@H]3CCCNC3)c12 [Example 912, 6-[5-(2-cyanoethyl)-1,3,4-thiadiazol-2-yl]-N-(3-methylthieno[3,2-c]pyridin-4-yl)-N-[(3R)-3-piperidyl]pyridine-3-carboxamide]
110 | Cc1cccc2ccnc(N(C(=O)c3ccc(-c4nnc(CCC#N)s4)cc3F)[C@@H]3CCCNC3)c12 [Example 879, 4-[5-(2-cyanoethyl)-1,3,4-thiadiazol-2-yl]-2-fluoro-N-(8-methyl-1-isoquinolyl)-N-[(3R)-3-piperidyl]benzamide]
600 | O=C(c1ccc(-n2nnc3cccnc32)cc1F)N(c1nccc2sc(C3CC3)cc12)[C@@H]1CCCNC1 [Example 740, (R)-4-(3H-[1,2,3]triazolo[4,5-b]pyridin-3-yl)-N-(2-cyclopropylthieno[3,2-c]pyridin-4-yl)-2-fluoro-N-(piperidin-3-yl)benzamide]
150 | Cc1csc2ccnc(N(C(=O)c3ccc(-c4cn(CCC#N)nn4)cc3F)[C@@H]3CCCNC3)c12 [Example 881, 4-[1-(2-cyanoethyl)triazol-4-yl]-2-fluoro-N-(3-methylthieno[3,2-c]pyridin-4-yl)-N-[(3R)-3-piperidyl]benzamide]
130 | Cc1nnc(-c2ccc(C(=O)N(c3nccc4cc(F)cc(C)c34)[C@@H]3CCCNC3)cn2)s1 [Example 647, N-(6-fluoro-8-methyl-1-isoquinolyl)-6-(5-methyl-1,3,4-thiadiazol-2-yl)-N-[(3R)-3-piperidyl] pyridine-3-carboxamide]
14 | Cc1cc(C#CC(C)(C)O)cc2ccnc(N(C(=O)c3ccc(-n4nnc5cccnc54)cc3F)[C@@H]3CCCNC3)c12 [Example 587, (R)-4-(3H-[1,2,3]triazolo[4,5-b]pyridin-3-yl)-2-fluoro-N-(6-(3-hydroxy-3-methylbut-1-yn-1-yl)-8-methylisoquinolin-1-yl)-N-(piperidin-3-yl)benzamide]
180 | Cc1csc2ccnc(N(C(=O)c3ccc(-c4nnc(CCC#N)s4)cc3)[C@@H]3CCCNC3)c12 [Example 882, 4-[5-(2-cyanoethyl)-1,3,4-thiadiazol-2-yl]-N-(3-methylthieno[3,2-c]pyridin-4-yl)-N-[(3R)-3-piperidyl]benzamide]
760 | COc1ccc2c(N(C(=O)c3ccc(-c4nnc(C)s4)cc3)[C@@H]3CCCNC3)nccc2c1F [Example 868, N-(5-fluoro-6-methoxy-1-isoquinolyl)-4-(5-methyl-1,3,4-thiadiazol-2-yl)-N-[(3R)-3-piperidyl]benzamide]
510 | Cc1cc(C2CCN(C(=O)N(c3nccc4c(F)ccc(C)c34)[C@@H]3CCCNC3)CC2)on1 [Example 659, (R)—N-(5-fluoro-8-methylisoquinolin-1-yl)-4-(3-methylisoxazol-5-yl)-N-(piperidin-3-yl)piperidine-1-carboxamide]
1500 | Cc1nsc(-c2ccc(C(=O)N(c3nccc4cc(F)cc(C)c34)[C@@H]3CCCNC3)cc2)n1 [Example 774, (R)—N-(6-fluoro-8-methylisoquinolin-1-yl)-4-(3-methyl-1,2,4-thiadiazol-5-yl)-N-(piperidin-3-yl)benzamide]
170 | CCc1nnc(-c2ccc(C(=O)N(c3nccc4scc(C)c34)[C@@H]3CCCNC3)nc2)s1 [Example 670, (R)-5-(5-ethyl-1,3,4-thiadiazol-2-yl)-N-(3-methylthieno[3,2-c]pyridin-4-yl)-N-(piperidin-3-yl)picolinamide]
> 6300 | Cc1cccc2ccnc(N(C(=O)c3ccc(N4CCOC(C)(C)C4)cc3F)[C@@H]3CCCNC3)c12 [Example 644, 4-(2,2-dimethylmorpholin-4-yl)-2-fluoro-N-(8-methyl-1-isoquinolyl)-N-[(3R)-3-piperidyl] benzamide]
45 | Cc1cccc2ccnc(N(C(=O)c3ccc(Nc4ncnc(N5CCCCC5)n4)cc3F)[C@@H]3CCCNC3)c12 [Example 969, 2-fluoro-N-(8-methylisoquinolin-1-yl)-4-{[4-(piperidin-1-yl)-1,3,5-triazin-2-yl]amino}-N-[(3R)-piperidin-3-yl]benzamide]
240 | O=C(c1ccc(-n2nnc3cccnc32)cc1F)N(c1nccc2sc(-c3ccnc(F)c3)cc12)[C@@H]1CCCNC1 [Example 566, 2-fluoro-N-[2-(2-fluoro-4-pyridyl)thieno [3,2-c]pyridin-4-yl]-N-[(3R)-3-piperidyl]-4-(triazolo [4,5-b]pyridin-3-yl) benzamide]
120 | COC/C=C(\Cl)c1ccnc(Nc2ccc(C(=O)N(c3nccc4cccc(C)c34)[C@@H]3CCCNC3)c(F)c2)n1 [Example 731, (R)-4-((4-(1-chloro-3-methoxyprop-1-en-1-yl)pyrimidin-2-yl)amino)-2-fluoro-N-(8-methylisoquinolin-1-yl)-N-(piperidin-3-yl)benzamide]
32 | Cc1cccc2ccnc(N(C(=O)c3ccc(Nc4nccc(N5CCC[C@@H]5CO)n4)cc3F)[C@@H]3CCCNC3)c12 [Example 966, 2-fluoro-4-({4-[(2R)-2-(hydroxymethyl)pyrrolidin-1-yl]pyrimidin-2-yl}amino)-N-(8-methylisoquinolin-1-yl)-N-[(3R)-piperidin-3-yl]benzamide]
2200 | Cc1cccc2ccnc(N(C(=O)c3ccc(Nc4ccccn4)nc3)[C@@H]3CCCNC3)c12 [Example 843, (R)—N-(8-methylisoquinolin-1-yl)-N-(piperidin-3-yl)-6-(pyridin-2-ylamino)nicotinamide]
17 | Cc1cc(Cl)cc2ccnc(N(C(=O)c3ccc(-n4nnc5cccnc54)cc3F)[C@@H]3CCCNC3)c12 [Example 615, N-(6-chloro-8-methyl-1-isoquinolyl)-2-fluoro-N-[(3R)-3-piperidyl]-4-(triazolo[4,5-b]pyridin-3-yl)benzamide]
130 | Cc1nnc(-c2ccc(C(=O)N(c3nccc4scc(C)c34)[C@@H]3CCCNC3)c(F)c2)o1 [Example 699, (R)-2-fluoro-4-(5-methyl-1,3,4-oxadiazol-2-yl)-N-(3-methylthieno[3,2-c]pyridin-4-yl)-N-(piperidin-3-yl)benzamide]
100 | COCCc1c(-c2ccc(C(=O)N(c3nccc4cc(Cl)cc(C)c34)[C@@H]3CCCNC3)c(F)c2)nnn1C [Example 636, (R)—N-(6-chloro-8-methylisoquinolin-1-yl)-2-fluoro-4-(5-(2-methoxyethyl)-1-methyl-1H-1,2,3-triazol-4-yl)-N-(piperidin-3-yl)benzamide]
52 | COc1cc(C)c2c(N(C(=O)c3ccc(-c4nnc(C)s4)cc3)[C@@H]3CCCNC3)nccc2c1 [Example 866, N-(6-methoxy-8-methyl-1-isoquinolyl)-4-(5-methyl-1,3,4-thiadiazol-2-yl)-N-[(3R)-3-piperidyl]benzamide]
220 | Cc1cccc2ccnc(N(C(=O)c3ccc(-c4cncc(C(N)=O)n4)cc3F)[C@@H]3CCCNC3)c12 [Example 318, (R)-6-(3-fluoro-4-((8-methylisoquinolin-1-yl)(piperidin-3-yl)carbamoyl)phenyl) pyrazine-2-carboxamide]
